What was measured:
[1] = system: HGFIN mRNA in HL-60; assay: Northern analysis of HGFIN mRNA in differentiated HL-60; assay type: cell-based; settings: HL-60 differentiated to monocytes (TPA) or granulocytes (DMSO)
Method: (§1) Cell Differentiation. Cell differentiation was performed with a myelomonocytic cell line, HL-60, or bone marrow mononuclear cells (BMNC). HL-60 cells were chemically differentiated with TPA and DMSO for monocytes and granulocytes respectively (Miura, et al. (2000) supra; Hegde, et al. (1999) Blood 94:1578-1589). BMNC were isolated from bone marrow aspirate of healthy donors using FICOLL HYPAQUE density gradient.
Northern Analysis. Northern analysis for steady state HGFIN mRNA was performed as described (Rameshwar, et al. (1997) J. Immunol. 158:3417-3424). Total RNA was extracted from the experimental cells and 10 μg from each was separated in 1.2% agarose. RNA was transferred to nylon membranes (S & S NYTRAN, Keene, N.H.) and then hybridized with [α-^32P]-dATP-labeled cDNA probes specific for HGFIN or Id2. Membranes were stripped and then reprobed with cDNA for 18S rRNA. Probes were randomly labeled with [α-^32P]-dATP, 3000 Ci/mM, (Dupont/NEN, Boston, Mass.) using the PRIME-IT II random primer kit (Stratagene). […]
HGFIN mRNA was studied in differentiated and undifferentiated HL-60 cells to determine if the expression of this gene was limited to normal bone marrow progenitors. […] Similar to normal progenitors, HGFIN mRNA was detected in differentiated HL-60. […]

[2] = system: Oct4 breast cancer cells; assay: Carboplatin treatment of tumors from Oct4 breast cancer cells in mice; assay type: in vivo, athymic BALB/c mice
Method: As discussed above, female athymic BALB/c mice (4 weeks) were obtained from Harlan Laboratories (Somerville, N.J.) and housed in a laminar flow hood at an AAALAC-accredited facility. The use of mice was approved by the Institutional Animal Care and Use Committee, New Jersey Medical School (Newark, N.J.).
Mice were inoculated with Oct4 cells where HGFIN expression was knocked down with siRNA. The cells were injected in a total volume of 0.2 mL subcutaneously in the dorsal flanks. Tumors were monitored daily and measured in two dimensions with a caliper and volume was calculated using the formula V=πr^2h, where r=radius and h=height. Animal were injected with carboplatin (50 mg/kg) on day 0 and day 3 of the test period. Tumors were palpated and tumor volume was measured every other day for two weeks (i.e., days 0, 2, 4, 6, 8, 10, 12 and 14).

[3] = system: HGFIN mRNA in bone marrow stroma; assay: Northern analysis of HGFIN mRNA in stimulated bone marrow stroma; assay type: cell-based, human; settings: bone marrow stroma vs unstimulated
Method: (§2) Cell Stimulation. Peripheral blood mononuclear cells (PBMC) were resuspended in RPMI 1640 containing 2% FCS at 10^6/ml. Cell suspension, 10 ml, was stimulated with 1 μg/ml of LPS. bone marrow stroma was stimulated in sera-free α-MEM (Sigma) with the following: 10 μg/ml SCF, 5 ng/ml IL-11, 5 U/ml […], 5 ng/ml […], 25 ng/ml NGF and […]. Dose-response curves with slot blots for HGFIN mRNA determined the optimal concentration of each stimulus. During stromal cell stimulation, culture media were supplemented with insulin-transferring-selenium-A (Life Technologies, Grand Island, N.Y.). In both types of cells, controls included parallel cultures in similar media. At 8 hours and 16 hours, total RNA was extracted from each experimental point and control and then analyzed by northern analyses for HGFIN mRNA.
(§3) Northern Analysis. Northern analysis for steady state HGFIN mRNA was performed as described (Rameshwar, et al. (1997) J. Immunol. 158:3417-3424). Total RNA was extracted from the experimental cells and 10 μg from each was separated in 1.2% agarose. RNA was transferred to nylon membranes (S & S NYTRAN, Keene, N.H.) and then hybridized with [α-^32P]-dATP-labeled cDNA probes specific for HGFIN or Id2. Membranes were stripped and then reprobed with cDNA for 18S rRNA. Probes were randomly labeled with [α-^32P]-dATP, 3000 Ci/mM, (Dupont/NEN, Boston, Mass.) using the PRIME-IT II random primer kit (Stratagene). The membrane was placed in a PHOSPHOIMAGER cassette (Molecular Dynamics, Sunnyvale, Calif.) and then scanned at different times beginning at 6 hours to 24 hours on a PHOSPHOIMAGER (Molecular Dynamics). Negative results were not attributed to the lack of total RNA on the membrane since each was hybridized with a cDNA probe for 18S rRNA.
The mesenchymal/stromal cells of the bone marrow produce most of the necessary soluble regulators that modulate bone marrow organ functions (Muller-Sieburg & Deryugina (1995) supra). Since HGFIN expression was altered in activated PBMC, the next set of studies examined the role of HGFIN in activated bone marrow stroma. The following stimulators were used: cytokines, SCF, IL-11, IL-1(α, β) and IL-6 and a neurotrophic factor, NGF. […] Densitometric scans were normalized with 18S rRNA and the fold (mean±SD) increase over unstimulated stroma was determined. […] However, together, the levels of HGFIN mRNA in the cytokine-stimulated cultures were much less than in stroma stimulated with NGF.

[4] = system: HGFIN mRNA in PBMC; assay: Northern analysis of HGFIN mRNA in stimulated PBMC; assay type: cell-based, human; settings: 1 μg/ml LPS
Method: as §2
Northern Analysis. Northern analysis for steady state HGFIN mRNA was performed as described (Rameshwar, et al. (1997) J. Immunol. 158:3417-3424). Total RNA was extracted from the experimental cells and 10 μg from each was separated in 1.2% agarose. […]
As differentiated immune cells express HGFIN, studies were performed to determining if HGFIN was also expressed when these differentiated cells were activated. […] Consistent with HGFIN expression in PBMC, HGFIN mRNA was detected in the unstimulated PBMC.

[5] = system: HGFIN mRNA in BMNC; assay: Northern analysis of HGFIN mRNA in BMNC cultured with M-CSF or G-CSF; assay type: cell-based, human
Method: as §1
(§4) Further, BMNC cells were differentiated with M-CSF or G-CSF (500 U/ml for each) to monocytes and granulocytes, respectively. Undifferentiated cells were cultured in parallel with only media. Culture media were replaced at two-day intervals until cytochemical staining determined that >90% of the cells were differentiated. At this time, cell differentiation was terminated and the cells analyzed by northern analyses for Id2 and HGFIN mRNA, and by immunoblot for Id2 protein. For HL-60 cultures, cytochemical staining was performed after three days with 100-200 cells. Beginning at day 5, cells from cultures with BMNC were stained and daily thereafter. Neutrophil and monocyte staining were performed with kits specific for 2-naphthyl-acetate esterase and naphthol AS-D chloroacetate esterase, respectively.
as §3
Since the HGFIN cDNA was isolated from bone marrow cell subsets, bone marrow and PB mononuclear cells were screened using northern analyses to study the expression of HGFIN. […] After the cells were >90% differentiated to monocytes and neutrophils, cells were analyzed for the expression of HGFIN mRNA by northern analyses.
To verify that the expression of HGFIN was not due to activation by the two cytokines, northern analyses were performed with BMNC cultured with M-CSF or G-CSF and then analyzed for HGFIN mRNA before the cells were differentiated.

[6] = system: Id2 in BMNC; assay: Id2 protein in differentiated BMNC; assay type: cell-based, human
Method: as §4, with “Neutrophil and monocyte staining were performed with kits specific for 2-naphthyl-acetate esterase and naphthol AS-D chloroacetate esterase, respectively.” left out
Western Blots. […] Extracts were centrifuged at 10,000 g for 10 minutes and then determined for total protein concentration using the BIO-RAD Protein Assay kit (BIO-RAD Laboratories, Hercules, Calif.). Extracts (15 Vig) were analyzed by western blot for Id2 protein as described (Rameshwar, et al. (2000) J. Immunol. 165:2271-2277). […] Alk Phos activity was detected with BCIP/NBT substrate System (Kirkeguard & Perry Laboratories, Gaithersburg, Md.). […]
Northern blots were performed in four experiments, each with a different donor. […] However in undifferentiated BMNC (cultured in media alone), Id2 mRNA was detected in each of the four bone marrow donors. […]

[7] = BMNC >90% differentiated to monocytes or neutrophils
[8] = BMNC cultured with cytokine, before the cells were differentiated

## 12-0-tetradecanoylphorbol diester [TPA]
[1]
  HGFIN mRNA: detected

## C[S+](C)[O-] [DMSO, dimethylsulfoxide]
[1]
  HGFIN mRNA: detected

## N.N.O=C([O-])C1(C(=O)[O-])CCC1.[Pt+2] [carboplatin]
[2]; 50 mg/kg, two weeks after second injection
  tumor cell volume vs before carboplatin treatment: statistically significant decreases
[2]; HGFIN knocked down with siRNA, 50 mg/kg day 0 and day 3, two weeks after second injection
  sensitivity of tumors to carboplatin: more sensitive

## IL-6: cytokine
[3]
  HGFIN mRNA induction: induced

## NGF: nerve growth factor, a neurotrophic factor
[3]
  HGFIN mRNA induction: induced

## SCF: Stem cell factor, cytokine
[3]
  HGFIN mRNA induction: induced

## lipopolysaccharide [LPS]
[4]; 8 hours
  steady state HGFIN mRNA: no difference
[4]; 16 hours
  steady state HGFIN mRNA: down-regulated

B1: IL-11: cytokine (protein, UniProt P20809 22-199, looked up)
Interleukin-11: PGPPPGPPRVSPDPRAELDSTVLLTRSLLADTRQLAAQLRDKFPADGDHNLDSLPTLAMSAGALGALQLPGVLTRLRADLLSYLRHVQWLRRAGGSSLKTLEPELGTLQARLDRLLRRLQLLMSRLALPQPPPDPPAPPLAPPSSAWGGIRAAHAILGGLHLTLDWAVRGLLLLKTRL
[3]
  HGFIN mRNA induction: induced

B2: G-CSF: granulocyte colony-stimulation factor (protein, UniProt P09919 31-207, looked up)
Granulocyte …: TPLGPASSLPQSFLLKCLEQVRKIQGDGAALQEKLVSECATYKLCHPEELVLLGHSLGIPWAPLSSCPSQALQLAGCLSQLHSGLFLYQGLLQALEGISPELGPTLDTLQLDVADFATTIWQQMEELGMAPALQPTQGAMPAFASAFQRRAGGVLVASHLQSFLEVSYRVLRHLAQP
[5]; [7]
  HGFIN mRNA: detectable
[5]; [8]
  HGFIN mRNA: no detectable HGFIN mRNA
[6]
  band for Id2 protein: very light to undetectable

B3: M-CSF: macrophage colony-stimulation factor (protein, UniProt P09603 33-554, looked up)
Macrophage colony-stimulating …: EEVSEYCSHMIGSGHLQSLQRLIDSQMETSCQITFEFVDQEQLKDPVCYLKKAFLLVQDIMEDTMRFRDNTPNAIAIVQLQELSLRLKSCFTKDYEEHDKACVRTFYETPLQLLEKVKNVFNETKNLLDKDWNIFSKNCNNSFAECSSQDVVTKPDCNCLYPKAIPSSDPASVSPHQPLAPSMAPVAGLTWEDSEGTEGSSLLPGEQPLHTVDPGSAKQRPPRSTCQSFEPPETPVVKDSTIGGSPQPRPSVGAFNPGMEDILDSAMGTNWVPEEASGEASEIPVPQGTELSPSRPGGGSMQTEPARPSNFLSASSPLPASAKGQQPADVTGTALPRVGPVRPTGQDWNHTPQKTDHPSALLRDPPEPGSPRISSLRPQGLSNPSTLSAQPQLSRSHSSGSVLPLGELEGRRSTRDRRSPAEPEGGPASEGAARPLPRFNSVPLTDTGHERQSEGSFSPQLQESVFHLLVPSVILVLLAVGGLLFYRWRRRSHQEPQRADSPLEQPEGSPLTQDDRQVELPV
[5]; [7]
  HGFIN mRNA: detectable
[5]; [8]
  HGFIN mRNA: no detectable HGFIN mRNA
[6]
  band for Id2 protein: very light to undetectable

Reference: patent publication US8383806B2, “Method of reversing carboplatin resistance by inhibition of HGFIN” (University of Medicine and Dentistry of New Jersey, priority 2000, dated 2013)
